The target of data set [1] is T1, mTOR (Homo sapiens, UniProt P42345). The data set is described as follows: mTOR enzyme assay (DELFIA format, His6-S6K substrate). The format is biochemical. The note with it: read-out: mTOR Kinase Median IC50.
The next data set addresses PI3Kγ (Homo sapiens, UniProt P48736). As to the kind of experiment: PI3K-gamma fluorescence polarization assay. The format is biochemical. To be noted: read-out: PI3Kγ Median IC50. On the technique in general: In fluorescence polarisation assays a small probe gives low polarisation when free and higher when bound to something large.
In a further data set the target is PI3Kα (Homo sapiens, UniProt P42336). The data set is described as follows: PI3K-alpha fluorescence polarization assay. Type of data set: biochemical. To be noted: read-out: PI3Kα Median IC50.
PI3Kα, sequence (P42336 whole entry, species assumed): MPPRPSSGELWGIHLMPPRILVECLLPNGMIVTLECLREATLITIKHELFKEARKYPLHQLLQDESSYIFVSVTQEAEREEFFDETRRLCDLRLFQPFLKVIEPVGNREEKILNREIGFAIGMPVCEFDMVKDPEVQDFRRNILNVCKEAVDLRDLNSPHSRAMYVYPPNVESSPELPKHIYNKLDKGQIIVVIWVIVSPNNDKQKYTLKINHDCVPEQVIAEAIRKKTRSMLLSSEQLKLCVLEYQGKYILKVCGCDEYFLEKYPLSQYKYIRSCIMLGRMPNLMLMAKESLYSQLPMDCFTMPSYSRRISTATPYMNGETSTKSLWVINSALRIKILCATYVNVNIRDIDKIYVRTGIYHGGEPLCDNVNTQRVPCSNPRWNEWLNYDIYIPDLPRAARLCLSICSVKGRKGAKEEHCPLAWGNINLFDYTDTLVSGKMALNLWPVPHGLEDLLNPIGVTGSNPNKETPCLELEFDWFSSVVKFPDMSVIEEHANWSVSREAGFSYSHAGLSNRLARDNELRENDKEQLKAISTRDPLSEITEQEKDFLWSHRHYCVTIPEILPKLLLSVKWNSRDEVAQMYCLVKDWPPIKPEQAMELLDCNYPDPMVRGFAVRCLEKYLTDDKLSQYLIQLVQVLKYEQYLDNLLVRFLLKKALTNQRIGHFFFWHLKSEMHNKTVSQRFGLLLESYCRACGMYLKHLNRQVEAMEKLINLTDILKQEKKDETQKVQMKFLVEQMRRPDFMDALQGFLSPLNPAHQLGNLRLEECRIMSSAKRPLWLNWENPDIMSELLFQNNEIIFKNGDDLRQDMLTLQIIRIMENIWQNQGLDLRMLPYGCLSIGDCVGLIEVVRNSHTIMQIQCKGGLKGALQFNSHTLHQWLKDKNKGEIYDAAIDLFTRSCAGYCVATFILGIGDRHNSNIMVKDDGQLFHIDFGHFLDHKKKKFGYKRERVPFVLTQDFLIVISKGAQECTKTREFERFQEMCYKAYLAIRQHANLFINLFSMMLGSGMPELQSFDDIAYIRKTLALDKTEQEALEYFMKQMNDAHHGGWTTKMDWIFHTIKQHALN
PI3Kα, sequence (P27986 whole entry partner, species assumed): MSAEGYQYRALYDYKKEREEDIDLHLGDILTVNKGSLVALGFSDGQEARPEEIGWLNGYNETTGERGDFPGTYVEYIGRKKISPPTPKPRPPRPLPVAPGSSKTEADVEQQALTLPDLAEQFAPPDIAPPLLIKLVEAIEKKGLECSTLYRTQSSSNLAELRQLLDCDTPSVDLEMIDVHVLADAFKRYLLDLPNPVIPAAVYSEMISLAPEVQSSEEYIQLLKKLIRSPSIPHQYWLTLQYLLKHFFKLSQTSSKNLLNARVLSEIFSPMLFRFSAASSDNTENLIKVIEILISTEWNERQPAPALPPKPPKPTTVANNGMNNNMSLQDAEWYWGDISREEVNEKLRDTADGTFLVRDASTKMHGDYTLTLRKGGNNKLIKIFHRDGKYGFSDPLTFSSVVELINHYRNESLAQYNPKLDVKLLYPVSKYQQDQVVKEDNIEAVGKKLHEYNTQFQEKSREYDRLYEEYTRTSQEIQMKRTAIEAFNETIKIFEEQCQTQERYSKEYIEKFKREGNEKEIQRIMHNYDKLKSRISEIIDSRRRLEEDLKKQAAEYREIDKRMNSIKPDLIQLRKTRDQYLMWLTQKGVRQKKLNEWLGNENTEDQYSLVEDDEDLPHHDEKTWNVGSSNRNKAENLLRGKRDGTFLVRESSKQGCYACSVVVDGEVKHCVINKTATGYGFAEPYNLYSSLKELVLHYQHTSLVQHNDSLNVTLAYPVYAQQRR
Data set [2] relates to human tumor xenograft models. To be noted: cited from earlier work.
Data set [3] relates to acute lymphoblastic leukemia. The note with it: NOS/SCID xenograft; cited from earlier work.
Data set [4] deals with T1, mTOR. The note with it: read-out: mTOR complexes / mTOR enzymes IC50; literature value; cited from earlier work.

Usually melting point stands for the temperature of the solid-liquid transition.

Molecules are shown by their SMILES. Like-named read-outs stand apart in the source and are kept apart here.

PI3Kγ, sequence (P48736 whole entry, species assumed): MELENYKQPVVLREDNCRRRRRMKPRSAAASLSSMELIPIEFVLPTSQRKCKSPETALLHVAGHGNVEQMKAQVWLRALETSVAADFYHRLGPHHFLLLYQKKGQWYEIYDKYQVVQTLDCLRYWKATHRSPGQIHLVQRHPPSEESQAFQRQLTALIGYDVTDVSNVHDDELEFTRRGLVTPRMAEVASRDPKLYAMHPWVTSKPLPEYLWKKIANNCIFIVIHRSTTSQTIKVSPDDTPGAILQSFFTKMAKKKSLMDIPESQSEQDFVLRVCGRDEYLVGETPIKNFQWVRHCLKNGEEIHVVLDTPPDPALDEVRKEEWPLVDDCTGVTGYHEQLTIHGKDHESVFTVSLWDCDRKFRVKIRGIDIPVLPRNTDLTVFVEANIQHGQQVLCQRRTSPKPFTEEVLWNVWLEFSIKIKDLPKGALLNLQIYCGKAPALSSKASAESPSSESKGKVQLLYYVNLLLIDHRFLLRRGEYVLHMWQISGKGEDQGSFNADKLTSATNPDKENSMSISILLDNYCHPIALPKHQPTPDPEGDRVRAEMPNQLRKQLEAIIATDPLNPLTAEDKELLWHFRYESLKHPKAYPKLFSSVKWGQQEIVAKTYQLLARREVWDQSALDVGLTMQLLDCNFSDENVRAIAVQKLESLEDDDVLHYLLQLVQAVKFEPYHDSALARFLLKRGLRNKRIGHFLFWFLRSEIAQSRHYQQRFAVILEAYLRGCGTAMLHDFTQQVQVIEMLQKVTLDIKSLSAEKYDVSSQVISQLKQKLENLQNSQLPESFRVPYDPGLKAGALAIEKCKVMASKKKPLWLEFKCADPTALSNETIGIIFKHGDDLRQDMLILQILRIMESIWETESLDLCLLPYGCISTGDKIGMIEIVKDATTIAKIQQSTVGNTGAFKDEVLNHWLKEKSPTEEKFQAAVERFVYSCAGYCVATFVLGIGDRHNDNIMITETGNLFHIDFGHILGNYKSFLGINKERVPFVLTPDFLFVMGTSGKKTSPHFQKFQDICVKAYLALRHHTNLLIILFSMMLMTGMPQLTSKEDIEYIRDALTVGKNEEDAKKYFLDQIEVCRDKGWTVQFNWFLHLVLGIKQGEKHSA

In the case of `Cn1cc(/C=C2\Oc3cccc(O)c3C2=O)c2c(N3CCC(C(=O)N4CCN(CCO)CC4)CC3)ccnc21` [Compound 307, (2Z)-4-hydroxy-2-{[4-(4-{[4-(2-hydroxyethyl)piperazin-1-yl]carbonyl}piperidin-1-yl)-1-methyl-1H-pyrrolo[2,3-b]pyridin-3-yl]methylidene}-1-benzofuran-3(2H)-one], the melting point lay in the range of 136 to 140 °C. Besides, at mTOR [1], the IC50 worked out at 1.9 nM. The IC50 at PI3Kγ came to 158 nM. The IC50 on PI3Kα was 24 nM.
Consider `COCC1CN(C(=O)C2CCN(c3ccnc4c3c(/C=C3\Oc5ccc(NC(=O)Nc6cccnc6)cc5C3=O)cn4C)CC2)CCO1` (centres unmarked) [Compound 308, 1-[(2Z)-2-{[4-(4-{[2-(methoxymethyl)morpholin-4-yl]carbonyl}piperidin-1-yl)-1-methyl-1H-pyrrolo[2,3-b]pyridin-3-yl]methylidene}-3-oxo-2,3-dihydro-1-benzofuran-5-yl]-3-pyridin-3-ylurea], for which the melting point was in the range of 206 to 210 °C. In addition, on mTOR [1], the IC50 came to 37 nM. Also, at PI3Kγ, the IC50 is 2800 nM. Further, the IC50 at PI3Kα was 729 nM.
In turn, `Cn1cc(/C=C2\Oc3ccc(NC(=O)Nc4cccnc4)cc3C2=O)c2c(N3CCC(C(=O)N4C5CCCC4COC5)CC3)ccnc21` [Compound 309, 1-[(2Z)-2-({1-methyl-4-[4-(3-oxa-9-azabicyclo[3.3.1]non-9-ylcarbonyl)piperidin-1-yl]-1H-pyrrolo[2,3-b]pyridin-3-yl}methylidene)-3-oxo-2,3-dihydro-1-benzofuran-5-yl]-3-pyridin-3-ylurea] registered a melting point of 210 to 215 °C. In addition, the IC50 at mTOR [1] came out at 48 nM. In addition, on PI3Kγ, the IC50 was determined as 1370 nM. The IC50 at PI3Kα is 164 nM.
`COCC1CN(C(=O)c2ccc(-c3ccnc4c3c(/C=C3\Oc5cccc(O)c5C3=O)cn4C)cc2)CCO1` (centres unmarked) [Compound 310, (2Z)-4-hydroxy-2-{[4-(4-{[2-(methoxymethyl)morpholin-4-yl]carbonyl}phenyl)-1-methyl-1H-pyrrolo[2,3-b]pyridin-3-yl]methylidene}-1-benzofuran-3(2H)-one] came in with a melting point of 222 to 226 °C. On mTOR [1], the IC50 was determined as 1.4 nM. For the same molecule, the IC50 at PI3Kγ came to 212 nM. On PI3Kα, the IC50 worked out at 73 nM.
`COCC1CN(C(=O)C2CCN(c3ccnc4c3c(/C=C3\Oc5cccc(O)c5C3=O)cn4C)CC2)CCO1` (centres unmarked) [Compound 311, (2Z)-4-hydroxy-2-{[4-(4-{[2-(methoxymethyl)morpholin-4-yl]carbonyl}piperidin-1-yl)-1-methyl-1H-pyrrolo[2,3-b]pyridin-3-yl]methylidene}-1-benzofuran-3(2H)-one] gave a melting point of 112 to 115 °C. On mTOR [1], the IC50 was found to be 3.8 nM. Further, the IC50 at PI3Kγ came to 698 nM. The IC50 on PI3Kα came out at 145 nM.
The matching figures for `Cn1cc(/C=C2\Oc3cccc(O)c3C2=O)c2c(N3CCC(C(=O)N4C5CCCC4COC5)CC3)ccnc21` [Compound 312, (2Z)-4-hydroxy-2-({1-methyl-4-[4-(3-oxa-9-azabicyclo[3.3.1]non-9-ylcarbonyl)piperidin-1-yl]-1H-pyrrolo[2,3-b]pyridin-3-yl}methylidene)-1-benzofuran-3(2H)-one]: 210 to 218 °C, 3.2 nM, 453 nM and 67 nM.
For the molecule `Cn1c(=O)n(-c2ccc(C(C)(C)C#N)cc2)c2c3cc(-c4cnc5ccccc5c4)ccc3ncc21` [NVP-BEZ-235, 2-methyl-2-(4-(3-methyl-2-oxo-8-(quinolin-3-yl)-2,3-dihydro-1H-imidazo[4,5-c]quinolin-1-yl)phenyl)propanenitrile], in data set [2] (prostrate (PC-3) and glioblastoma (U-87)), the “activity against human tumor models” value was “demonstrated activity”.
For `Oc1cccc(-c2nc(N3CCOCC3)c3oc4ncccc4c3n2)c1` [PI103, 3-(4-(4-morpholinyl)pyrido[3′,2′:4,5]furo[3,2-d]pyrimidin-2-yl)phenol], the “activity against human tumor models” value in data set [2] (I.P. dosing in mice, U87MG, PC3, MDA-MB-468, MDA-MB-435, HCT 116, SKOV3, IGROV-1) is recorded as “demonstrated activity”.
With `CO[C@H]1C[C@@H]2CC[C@@H](C)[C@@](O)(O2)C(=O)C(=O)N2CCCC[C@H]2C(=O)O[C@H]([C@H](C)C[C@@H]2CC[C@@H](OC(=O)C(C)(CO)CO)[C@H](OC)C2)CC(=O)[C@H](C)/C=C(\C)[C@@H](O)[C@@H](OC)C(=O)[C@H](C)C[C@H](C)/C=C/C=C/C=C/1C` [Torisel], the “activity in xenograft mouse model” value in data set [3] is “active”.
Regarding `FC(F)c1nc2ccccc2n1-c1nc(N2CCOCC2)nc(N2CCOCC2)n1` [ZSTK474, 2-(2-difluoromethylbenzoimidazol-1-yl)-4,6-dimorpholino-1,3,5-triazine], in data set [2] (chronic oral administration, 400 mg/kg, A549, PC-3, WiDr), the tumor growth inhibition entry is “completely inhibited growth”. At mTOR [4], the IC50 is greater than 10000 nM.

The values above are taken from US20090298820A1, “3-SUBSTITUTED-1H-PYRROLO[2,3-B]PYRIDINE AND 3-SUBSTITUTED-1H-PYRROLO[3,2-B]PYRIDINE COMPOUNDS, THEIR USE AS MTOR KINASE AND PI3 KINASE INHIBITORS, AND THEIR SYNTHESES” (Wyeth, priority 2008, published 2009).
